In general, IC50 refers to the point on the concentration scale where inhibition reaches its midpoint. Lower therefore signals greater potency in that assay.

Bounds are passed on as bounds.

The first assay deals with human LINE-1. Description: Human LINE-1 retrotransposition assay (HeLa cell-based dual-luciferase reporter). The conditions noted are these: Homo sapiens, HeLa, 72 h, Human LINE-1 activity inhibition; HeLa cells, reporter plasmid pYX017, Firefly/Renilla, 72 h incubation. The procedure:
Representative Compounds of the Disclosure were tested for inhibition of retrotransposition activity of human LINE-1 in HeLa cells according to the following procedure.
HeLa cervical cancer cells were cultivated at 37° C. in a humidified 5% CO2 incubator in Dulbecco's Modified Eagle's Medium (DMEM)—high glucose, with 4500 mg/L glucose, L-glutamine, sodium pyruvate and sodium bicarbonate (Sigma), supplemented with 10% of heat inactivated fetal bovine serum (Thermo Fisher).
Assays were performed using reporter plasmid pYX017 as described (Xie, et al., 2011) with several modifications. The reporter assay was performed in 96-well white optical bottom plates. HeLa cells were seeded in wells 24 h prior to transfection and compound treatment so that cells were approximately 30% confluent on the day of transfection. Different cell plating densities were tested and a density of 2×10^3 cells was determined to be optimal.
Compounds were resuspended in DMSO. Serial dilutions (1:3) were prepared in DMSO. Medium containing different concentrations of the compounds were prepared by adding 2 μl of the compound dilution to 1 ml of the culture medium. The final concentration of DMSO in the medium was 0.2%.
FuGENE® HD transfection reagent (Promega, E2311, Lot 382574 and Lot 397842) was used to transfect the plasmids into the cells. The transfection reagent: DNA mixture was prepared in OpiMEM (Thermo Fisher) according to manufacturer's instructions. Different ratios of transfection reagent to DNA were tested and a ratio of 3:1 was determined to be optimal. Culture medium was removed from the cells and discarded. The transfection reagent: DNA mixture (5 μl) was mixed with the compound containing medium (100 μl/well) and this was added onto the cells of each well. Cells were incubated at 37° C./5% CO2 for different incubation time. A 72 h incubation time was determined to be optimal.
Luciferase reporter activity was quantified with the Dual-Luciferase® Reporter Assay System (Promega) according to manufacturer's instructions for multiwell plates except that cells were lysed directly on the multiwell plate with 30 μl of the passive lysis buffer (PLB) for 20 min at room temperature, with gentle shaking to ensure complete cell lysis.
Firefly and Renilla luciferase signals were measured using a SpectraMax i3× Multi-Mode Microplate Reader. Integration times of 100 ms and 10 ms were used to measure the Firefly and Renilla signals respectively. Relative L1 activity is calculated as Firefly/Renilla*1000 or Firefly/Renilla*10,000. Dose response inhibition data were fit to a four parameter logistic equation using non-linear regression (using Graphpad Prism 8), to determine IC50 values for each inhibitor.
As for `C#C[C@@]1(CO)C=C[C@H](n2cnc3c(Cl)ncnc32)O1` [compound 39, ((2R,5R)-5-(6-chloro-9H-purin-9-yl)-2-ethynyl-2,5-dihydrofuran-2-yl)methanol], the IC50 was > 50 µM. For the compound `Nc1nc(F)nc2c1ncn2[C@H]1C[C@H](O)C(CO)(CO)O1` [compound 154, ((3S,5R)-5-(6-amino-2-fluoro-9H-purin-9-yl)-3-hydroxytetrahydrofuran-2,2-diyl)dimethanol], the IC50 was > 40 µM. Turning to `C#C[C@]1(CO)O[C@@H](n2cnc3c(NC4CC4)ncnc32)C[C@@H]1O` [compound 86, (2R,3S,5R)-5-(6-(cyclopropylamino)-9H-purin-9-yl)-2-ethynyl-2-(hydroxymethyl)tetrahydrofuran-3-ol], the IC50 worked out at 3.4 µM. On the same count and under the same terms, for `CC[C@]1(CO)O[C@@H](n2cnc3c(N)nc(Cl)nc32)[C@@H](O)[C@@H]1O` [compound 193, (2R,3S,4S,5R)-5-(6-amino-2-chloro-9H-purin-9-yl)-2-ethyl-2-(hydroxymethyl)tetrahydrofuran-3,4-diol] the value was 2.81 µM; for `C=C[C@]1(CO)O[C@@H](n2cc(Br)c(N)nc2=O)C[C@@H]1O` [Cpd. No. 90, 4-amino-5-bromo-1-((2R,4S,5R)-4-hydroxy-5-(hydroxymethyl)-5-vinyltetrahydrofuran-2-yl)pyrimidin-2(1H)-one], 0.658 µM; for `C#C[C@]1(CO)OC(n2cc(F)c(=O)[nH]c2=O)C[C@@H]1O` (stereo partly drawn) [compound 45, 1-((4S,5R)-5-ethynyl-4-hydroxy-5-(hydroxymethyl)tetrahydrofuran-2-yl)-5-fluoropyrimidine-2,4(1H,3H)-dione], 3.81 µM. On the same count and under the same terms, under `C#C[C@@]1(CO)C=C[C@H](n2cc(C#N)c(=O)[nH]c2=O)O1` [compound 33, 1-((2R,5R)-5-ethynyl-5-(hydroxymethyl)-2,5-dihydrofuran-2-yl)-2,4-dioxo-1,2,3,4-tetrahydropyrimidine-5-carbonitrile] stands > 12.5 µM. The compound `COc1nc(N)nc2c1ncn2[C@H]1C[C@H](O)[C@](CO)(CF)O1` [compound 163, (2R,3S,5R)-5-(2-amino-6-methoxy-9H-purin-9-yl)-2-(fluoromethyl)-2-(hydroxymethyl)tetrahydrofuran-3-ol] displayed an IC50 of 14 µM. Same read-out and setting: for `C#C[C@@]1(CO)O[C@H](n2ccc(N)nc2=O)C[C@H]1O` [Cpd. No. 76, 4-amino-1-((2S,4R,5S)-5-ethynyl-4-hydroxy-5-(hydroxymethyl)tetrahydrofuran-2-yl)pyrimidin-2(1H)-one] the value was > 6.25 µM; for `C#C[C@]1(CO)O[C@@H](n2cnc3c(OC)nc(N)nc32)C[C@@H]1O` [compound 101, (2R,3S,5R)-5-(2-amino-6-methoxy-9H-purin-9-yl)-2-ethynyl-2-(hydroxymethyl)tetrahydrofuran-3-ol], 0.259 µM; for `C#C[C@@]1(CO)C=C[C@H](n2cc(F)c(N)nc2=O)O1` [compound 40, 4-amino-1-((2R,5R)-5-ethynyl-5-(hydroxymethyl)-2,5-dihydrofuran-2-yl)-5-fluoropyrimidin-2(1H)-one], > 50 µM.

In turn, `CC[C@]1(CO)O[C@@H](n2cnc3c(N)ncnc32)[C@@H](O)[C@@H]1O` [compound 194, (2R,3S,4S,5R)-5-(6-amino-9H-purin-9-yl)-2-ethyl-2-(hydroxymethyl)tetrahydrofuran-3,4-diol] gave an IC50 of 1.94 µM.

Regarding `C#C[C@]1(CO)O[C@H](n2cnc3c(N)nc(N)nc32)C[C@@H]1O` [compound 72, (2R,3S,5S)-5-(2,6-diamino-9H-purin-9-yl)-2-ethynyl-2-(hydroxymethyl)tetrahydrofuran-3-ol], 23.4 µM corresponded to half-maximal inhibition (IC50). This IC50 lies about 12-fold higher than the previous one. On the same count and under the same terms, under `C=C[C@]1(CO)O[C@H](n2cc(C#N)c(=O)[nH]c2=O)C[C@@H]1O` [compound 7, 1-((2S,4S,5R)-4-hydroxy-5-(hydroxymethyl)-5-vinyltetrahydrofuran-2-yl)-2,4-dioxo-1,2,3,4-tetrahydropyrimidine-5-carbonitrile] stands 0.89 µM. Still for that read-out and setting: for `C=C[C@]1(CO)O[C@@H](n2cc(C#N)c(=O)[nH]c2=O)C[C@@H]1O` [Cpd. No. 69, 1-((2R,4S,5R)-4-hydroxy-5-(hydroxymethyl)-5-vinyltetrahydrofuran-2-yl)-2,4-dioxo-1,2,3,4-tetrahydropyrimidine-5-carbonitrile] the value was 6.2 µM; for `CC[C@]1(CO)O[C@@H](n2cnc3c(NC4CC4)nc(F)nc32)C[C@@H]1O` [Cpd. No. 99, (2R,3S,5R)-5-(6-(cyclopropylamino)-2-fluoro-9H-purin-9-yl)-2-ethyl-2-(hydroxymethyl)tetrahydrofuran-3-ol], 5.53 µM. Same read-out and setting: for `C#C[C@]1(CO)O[C@H](n2cnc3c(NC4CC4)nc(F)nc32)C[C@@H]1O` [compound 84, (2R,3S,5S)-5-(6-(cyclopropylamino)-2-fluoro-9H-purin-9-yl)-2-ethynyl-2-(hydroxymethyl)tetrahydrofuran-3-ol] the value was 14 µM; for `C#C[C@@]1(CO)C=C[C@H](n2cc(C3CC3)c(=O)[nH]c2=O)O1` [compound 27, 5-cyclopropyl-1-((2R,5R)-5-ethynyl-5-(hydroxymethyl)-2,5-dihydrofuran-2-yl)pyrimidine-2,4(1H,3H)-dione], > 50 µM; for `CC[C@]1(CO)O[C@@H](n2cnc3c(N)nc(Cl)nc32)C[C@@H]1O` [compound 190, (2R,3S,5R)-5-(6-amino-2-chloro-9H-purin-9-yl)-2-ethyl-2-(hydroxymethyl)tetrahydrofuran-3-ol], ~50 µM. With `N#C[C@]1(CO)O[C@@H](n2cc(Cl)c(N)nc2=O)C[C@@H]1O` [compound 164, (2R,3S,5R)-5-(4-amino-5-chloro-2-oxopyrimidin-1(2H)-yl)-3-hydroxy-2-(hydroxymethyl)tetrahydrofuran-2-carbonitrile], the IC50 is > 50 µM.

With `COC[C@@]1(CO)C=C[C@H](n2cc(C)c(=O)[nH]c2=O)O1` [compound 48, 1-((2R,5S)-5-(hydroxymethyl)-5-(methoxymethyl)-2,5-dihydrofuran-2-yl)-5-methylpyrimidine-2,4(1H,3H)-dione], the IC50 was > 50 µM. Same read-out and setting: under `C=C[C@]1(CO)O[C@@H](n2cc(C)c(=O)[nH]c2=O)C[C@@H]1O` [Cpd. No. 62, 1-((2R,4S,5R)-4-hydroxy-5-(hydroxymethyl)-5-vinyltetrahydrofuran-2-yl)-5-methylpyrimidine-2,4(1H,3H)-dione] stands 3.67 µM; under `C#C[C@]1(CO)OC(n2cnc3c(O)ncnc32)C[C@@H]1O` (stereo partly drawn) [compound 81, 9-((4S,5R)-5-ethynyl-4-hydroxy-5-(hydroxymethyl)tetrahydrofuran-2-yl)-9H-purin-6-ol], 4.4 µM. The same measure, in the same setting: under `C#C[C@@]1(CO)C=C[C@H](n2cc(CC)c(=O)[nH]c2=O)O1` [compound 35, 5-ethyl-1-((2R,5R)-5-ethynyl-5-(hydroxymethyl)-2,5-dihydrofuran-2-yl)pyrimidine-2,4(1H,3H)-dione] stands > 50 µM. On the same count and under the same terms, under `C#C[C@@]1(CO)O[C@@H](n2cnc3c(=O)[nH]c(N)nc32)C[C@H]1O` [Cpd. No. 79, 2-amino-9-[(2R,4R,5S)-5-ethynyl-4-hydroxy-5-(hydroxymethyl)tetrahydrofuran-2-yl]-1H-purin-6-one] stands 17 µM.

Staying with this assay, now noted: Human LINE-1 activity inhibition; HeLa cells, reporter plasmid pYX017, Firefly/Renilla, 72 h incubation.
As for `C#C[C@]1(CO)OC(n2cnc3c(O)ncnc32)C[C@@H]1O` (stereo partly drawn) [compound 81, 9-((4S,5R)-5-ethynyl-4-hydroxy-5-(hydroxymethyl)tetrahydrofuran-2-yl)-9H-purin-6-ol], 7.45 µM corresponded to half-maximal inhibition (IC50).

Source of the values: patent US20260035403A1, “NUCLEOSIDE LINE-1 INHIBITORS” (TRANSPOSON THERAPEUTICS, INC., priority 2022, published 2026).
